A short description of this assay: peroxy radical scavenging activity (BODIPY 581/591 C11 fluorescence with AMVN radical generator, microplate; Median Effect/CalcuSyn analysis).
Setting [1] is: Example 2, concentration of the named component in the 1:1 melatonin and natural astaxanthin mixture.
[2] abbreviates: Example 4, component of the melatonin and mixed tocotrienols mixture.

≈ marks a conversion by molar mass, not a printed value.

Experimental: Measurement of peroxy radical scavenging activity of the individual compounds and combinations was performed essentially as described by Naguib (Analytical Biochemistry(1998) 265:290-298) with modifications to allow the assay to be performed on a microplate. The fatty acid indicator 4,4difluoro-5-(4-phenuyl-1,3-butadienyl)-4-bora-3a-4a-diaza-s-indacene-3-undecanate (BODIPY 581/591 C11) was purchased from Molecular Probes (Eugene, Oreg.). As a peroxy radical generator, 2,2′-azobis-2,4-dimethyl valeronitrile (AMVN) was used and obtained from WAKO Chemicals (Richmond, Va.). All standards were of the highest purity commercially available. Additionally, the solvents were of HPLC grade.
Fluorescence measurements were performed using a Packard FluoroCount microplate fluorometer equipped with a temperature-controlled plate holder. All measurements were preformed in a 96-well polypropylene plate with stirring.
Reactions in octane: butyronitrile (9:1, v/v) were carried out at 30° C. All fluorescence measurements were recorded every 15 minutes for 1 hour at excitation wavelengths of 570 nm, with emission at 620 nm. The net protection (area under the curve, AUC) by the antioxidant sample was calculated using the trapezoid method.
The final reaction mixture (200 μl) for the assay contained 0.5 μg/mL BODIPY 581/591C11 and 0.26 M AMVN in octane:butyronitrile (9:1, v/v). Stock solutions of the test samples were made up in chloroform and 6 μL was added to the reaction mixture to achieve the stated concentrations. The reaction was initiated by the addition of the AMVN fluorometric readings were then recorded every 15 minutes for one hour.
Synergy between melatonin and astaxanthin was assessed using CalcuSyn (BIOSOFT, biosoft.com). This statistical package performs multiple drug dose-effect calculations using the Median Effect methods described by T-C Chou and P. Talaly (Trends Pharmacol. Sci. 4:450-454), hereby incorporated by reference.
Cm is determined from the x-intercept of the median-effect plot. The fraction affected by the concentration of the test material is fa and the fraction unaffected by the concentration is fu (fu=1−fa). The exponent m is the parameter signifying the sigmoidicity or shape of the dose-effect curve. It is estimated by the slope of the median-effect plot.
The median-effect plot is a plot of x=log(C) vs y=log(fa/fu) and is based on the logarithmic form of Chou's median-effect equation. The goodness of fit for the data to the median-effect equation is represented by the linear correlation coefficient r of the median-effect plot.
Synergy of test components was quantified using the combination index (CI) parameter. The CI of Chou-Talaly is based on the multiple drug-effect and is derived from enzyme kinetic models (Chou, T.-C. and Talalay, P. (1977) A simple generalized equation for the analysis of multiple inhibitions of Michaelis-Menten kinetic systems. J. Biol. Chem. 252:6438-6442). The equation determines only the additive effect rather than synergism or antagonism. However, we define synergism as a more than the expected additive effect, and antagonism as a less than the expected additive effect as proposed by Cho and Talalay in 1983 (Trends Pharmacol. Sci. (1983) 4:450-454).
Dose-response curves were described with each test article separately and then in a two-way combination. For the individual dose-response curves, concentrations of melatonin included 100, 500 and 1000 μM, while the concentrations of astaxanthin were 49, 98, 490, and 980 μM.

Regarding `CC1=C(/C=C/C(C)=C/C=C/C(C)=C/C=C/C=C(C)/C=C/C=C(C)/C=C/C2=C(C)C(=O)[C@@H](O)CC2(C)C)C(C)(C)C[C@H](O)C1=O` [Astaxanthin alone, 3, 3′-dihydroxy-β,β-carotene-4, 4′-dieto-β-carotene], under “Example 1, listed as of test material alone”, the IC75 is listed as 185 (107-319) μM. Further, the IC50 (Example 5, test material alone) is 148 (94-232) μg test/mL.
With `CC1=C[C@H](O)CC(C)(C)[C@H]1/C=C/C(C)=C/C=C/C(C)=C/C=C/C=C(C)/C=C/C=C(C)/C=C/C1=C(C)C[C@@H](O)CC1(C)C` [Lutein alone, lutein], the IC50 (Example 3, test material alone) is 61 µM.
On the same count and under the same terms, the value for `CC1=C(/C=C/C(C)=C/C=C/C(C)=C/C=C/C=C(C)/C=C/C=C(C)/C=C/C2=C(C)CCCC2(C)C)C(C)(C)CCC1` [β-Carotene alone, β-carotene] was 366 µM.
Turning to `COc1ccc2[nH]cc(CCNC(C)=O)c2c1` [Melatonin alone, N-acetyl-5-methoxytryptamine], the IC50 (Example 1, test material alone, 95% confidence interval in parentheses) was 284 µM; the IC50 under setting [1] is 38 µg/mL; the IC50 (Example 2, test material alone) is listed as 120 (105-137) μg/mL; the IC50 (Example 3, test material alone) is 283 µM; the IC50 (Example 4, test material alone) was 53 (25-112) μg test/mL; the IC50 (Example 5, test material alone) is 53 (25-112) μg test/mL. Besides, the “increase in antioxidant potency” value (Example 2, component in 1:1 melatonin and natural astaxanthin combination versus alone) is recorded as 3.2 fold; the “increase in antioxidant potency” value (Example 4, component in 1:1 melatonin and mixed tocotrienols combination versus alone) was 3.1 fold. The IC75 under setting [1] is 54 µg/mL (≈ 232 µM). Moreover, under setting [1], the IC90 was 77 µg/mL (≈ 331 µM). The “concentration for 50 percent inhibition of peroxy radical formation” value under setting [2] was 17 µg/mL. The “concentration for 75 percent inhibition of peroxy radical formation” value under setting [2] was 21 µg/mL. The “concentration for 90 percent inhibition of peroxy radical formation” value under setting [2] is 26 µg/mL.

Broadly, the IC90 is the concentration needed for an effect of 90%.

The record behind these values is patent US20020120001A1, “Compositions containing tryptamines, cartenoids and tocotrienols and having synergistic antioxidant effect” (Ashni Naturaceuticals, Inc., priority 2000, published 2002).
